Assay in all cases: NCI anticancer screen, dose series, 48 h
Assay [1] concerns HCC-2998 colon.
For assay [2], the system named is RPMI-8226 leukemia.
Assay [3] has as its system HCT-15 colon.
In assay [4] the test system is UACC-62 melanoma.
Assay [5] has as its system TK-10 renal.
The subject of assay [6] is SNB-19 CNS.
Assay [7] deals with K-562 leukemia.
In assay [8] the test system is COLO 205 colon.
In assay [9] the test system is CCRF-CEM leukemia.

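96-well plates; 48 h exposure; 5 concentrations. Endpoints by linear interpolation between flanking doses. Not reached: highest tested concentration assigned. At the GI50, growth is halved. TGI marks complete inhibition of growth.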

Turning to `Cc1ccc(-c2cc(-c3ccc(C)cc3)nc(NCCNc3ccnc4cc(Cl)ccc34)n2)cc1`, the GI50 in assay [1] was 1760 nM; in assay [2], 1.85 µM; in [3], 1550 nM; in assay [4] it was 1770 nM; in assay [5], 1780 nM; in [6], 1890 nM. Moreover, the GI50 in assay [7] was 1820 nM; in assay [8] it was 1690 nM. Also, the TGI in [1] amounted to 3.28 µM; in assay [2], 4.45 µM; in [3] it was 3.16 µM; in assay [4], 3.38 µM; in assay [5], 3.47 µM; in assay [6] it was 3.76 µM. The TGI turned out to be 4.5 µM in assay [7] and 3.48 µM in assay [8].

In the case of `CCN(C(=O)N1CCN(c2cc3c(cc2F)c(=O)c(C(=O)O)cn3C2CC2)CC1)c1nc(-c2ccc(C)cc2)cs1`, the GI50 in [1] was 694 nM; in assay [3], 341 nM; in [4], 837 nM; in assay [5] it was 2700 nM; in assay [6], 1030 nM; in [7], 431 nM. Further, in assay [9], the GI50 was 356 nM. Further, the TGI in [1] was over 100 µM; in assay [3], over 100 µM; in [4], over 100 µM; in assay [5], over 33.3 µM; in [6], over 45.4 µM; in assay [7], over 100 µM. This compound yielded a TGI in assay [9] of over 100 µM.

Take `CCC1CN2CCc3cc(OC)c(OC)cc3C2CC1CC1c2cc(OC)c(OC)cc2CCN1C(=O)C1CCCN1C(=O)OCc1ccccc1` (centres undefined): the TGI worked out at 30 µM in [1]; 36.5 µM in [2]; 29.9 µM in assay [3]; 29.7 µM in assay [4]; 38.6 µM in assay [5]; 73.5 µM in assay [6]. The same compound displayed a TGI in assay [7] of 36 µM.

As for `O=C1C(=O)N(c2ccc(Cl)c(Cl)c2)C(=O)C(=O)C1c1nc2ccccc2s1`, the TGI in assay [1], in assay [2], in assay [3], in assay [4], in assay [5] and in assay [6] was over 100 µM in each case. Also, the TGI in [8] and in [9] was over 100 µM each time.

As for `O=C1c2ccccc2-c2c1c1ccc([N+](=O)[O-])cc1c(=O)n2CCCBr`, the GI50 in [1] is over 100000 nM; in assay [2], 36 µM; in assay [3] it was over 100000 nM; in [4], over 100000 nM; in assay [6], over 100000 nM; in assay [7], over 100000 nM. In addition, in assay [8], the GI50 was over 100000 nM. For the same compound, the TGI in assay [1], in assay [2], in [3], in [4], in assay [6] and in assay [7] was over 100 µM in each case. Besides, the TGI in assay [8] is over 100 µM.

As for `C=CCc1cc(OC)c2c(c1)C(O)CC(c1ccccc1)O2` (centres undefined), the TGI in assay [1], in assay [3], in assay [4], in assay [5], in assay [6] and in [7] was over 100 µM throughout. Further, the TGI in assay [8] and in [9] was over 100 µM in each case.

For `Brc1cccc(C2SCc3nc4ccccc4n32)c1` (centres undefined), the TGI in [2] was over 100 µM; in [3] it was 35.9 µM; in assay [4] it was 31 µM; in [5] it was 65.1 µM; in assay [7] it was over 100 µM; in assay [8], 38.6 µM. In assay [9], this compound came in with a TGI of over 100 µM.

With `COc1cc2c(cc1OC(=O)CC(C)O)C1C(OC2=O)C(OC(C)=O)C=C2CCN(C)[C@H]21` (some centres undefined), the TGI in assay [1] was over 100 µM; in assay [4] it was over 100 µM; in assay [5], 65.1 µM; in assay [6], 57.5 µM; in assay [7] it was over 100 µM; in assay [8], over 100 µM. Moreover, the TGI in [9] was over 100 µM.

Regarding `CCOC(=O)c1nc2ccc([N+](=O)[O-])cc2c2c1CCO2`, the TGI in assay [1], in assay [3], in assay [4], in assay [5], in assay [6] and in assay [7] was over 100 µM each time. Moreover, the TGI in assay [8] and in assay [9] was over 100 µM each time.

Turning to `CC(=O)OC1CCn2nnc(CO[Si](C)(C)C(C)(C)C)c21` (centres undefined), the TGI in assay [1], in assay [2], in assay [3], in [5], in assay [6] and in assay [7] was over 100 µM throughout. Also, the TGI in assay [8] was over 100 µM.

With `COc1ccc(C2=C(Cl)c3cc(OC)c(OC)cc3C2Cl)cc1OC` (centres undefined), the TGI worked out at 27.7 µM in [2]; 55.6 µM in [3]; 31 µM in assay [4]; 46.3 µM in assay [5]; 32.1 µM in assay [6]; 48.6 µM in assay [7]. Besides, the TGI in assay [8] was determined as 32.5 µM; in [9], 28.9 µM.

The values are drawn from PubChem BioAssay (NCI).
